Results on 22 molecules are retold here after patent publication US20250195530A1, “POLQ INHIBITORS” (ASTRAZENECA AB, priority 2022, published 2025).

Like-named read-outs stand apart in the source and are kept apart here.

The subject of one assay is DLD-1 cells. The assay can be described thus: Inhibition of proliferation, DLD-1 BRCA2 wt control (Cell Titre Glo 3D). The assay is classed as cell-based. Conditions: Homo sapiens. The method in brief:
(§1)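 Read-out: CellTiter-Glo 3D luminescence, day 7 for wt DLD-1, day 12 for BRCA2−/−, about 8-9 population doublings each. Seeding 1,500 or 3,000 cells/mL respectively. Dose range 10 μM–0.51 nM, 3-fold, 10 points, with re-dosing on day 6. IC50 from curve fit.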

Another assay relates to DLD-1 BRCA2−/− cells. The assay can be described thus: Homologous recombination synthetic lethal inhibition of proliferation, DLD-1 BRCA2-/- (Cell Titre Glo 3D). The assay is classed as cell-based. Conditions: Homo sapiens. An outline of the steps: as §1
The mark [1] stands for this setting: DLD-1, DLD1 BRCA2 wt, mean, read-out: POLQ PD Prolif Lumin DLD1 mean pIC50 (converted).
Setting [2] is: DLD-1, DLD-1 BRCA2 −/−, mean, read-out: POLQ PD Prolif Lumin BRCA2 −/− mean pIC50 (converted).
Setting [3] is: DLD-1, DLD1 BRCA2 wt cells, mean, read-out: POLQ PD Prolif Lumin DLD1 mean PIC50 (converted).
Where [4] appears, read: DLD-1, DLD-1 BRCA2 −/− cells, mean, read-out: POLQ PD Prolif Lumin BRCA2 −/− mean pIC50 (converted).
[5] abbreviates: DLD-1, 168 h, DLD-1 BRCA2 wt cells, 7 days, read-out: POLQ PD Prolif Lumin DLD1 mean pIC50 (converted).
[6] abbreviates: DLD-1, 288 h, DLD-1 BRCA2−/− cells, 12 days, read-out: POLQ PD Prolif Lumin BRCA2 −/− mean pIC50 (converted).
[7] abbreviates: DLD-1, second proliferation column (c6), DLD-1 BRCA2 wt control, read-out: POLQ PD Prolif Lumin (converted).
The mark [8] stands for this setting: DLD-1, first proliferation column (c5), DLD-1 BRCA2-/-, read-out: POLQ PD Prolif Lumin (converted).
[9] abbreviates: DLD-1, second proliferation column, DLD-1 BRCA2 wt control, read-out: POLQ PD Prolif Lumin (converted).
Setting [10] is: DLD-1, first proliferation column, DLD-1 BRCA2-/-, read-out: POLQ PD Prolif Lumin (converted).
The mark [11] stands for this setting: DLD-1, second proliferation column (c6), taken as DLD-1 BRCA2 wt, read-out: POLQ PD Prolif Lumin (converted).
[12] abbreviates: DLD-1, first proliferation column (c5), taken as DLD-1 BRCA2-/-, read-out: POLQ PD Prolif Lumin (converted).
Setting [13] is: DLD-1, DLD-1 BRCA2 wt control proliferation, column head only partly shown, read-out: POLQ PD Prolif Lumin (converted).
[14] abbreviates: DLD-1, DLD-1 BRCA2-/- proliferation, column head only partly shown, read-out: POLQ PD Prolif Lumin (converted).

In the case of `COc1ccc(Cl)cc1Cn1c(-c2cccc(OCC[C@H](C)C(=O)O)c2Cl)nc2c(OC3(C)CC3)ncnc21` [Example U73, (S)-4-(2-chloro-3-(9-(5-chloro-2-methoxybenzyl)-6-(1-methylcyclopropoxy)-9H-purin-8-yl)phenoxy)-2-methylbutanoic acid], the IC50 in the assay on DLD-1 cells (setting [1]) was more than 10000 nM; in the assay with DLD-1 BRCA2−/− cells (setting [2]), 2 nM.

With `CC1(Oc2ncnc3c2nc(-c2ccc(OCCO)cc2Cl)n3Cc2cc(Cl)ccn2)CC1` [Example T15, 2-(3-chloro-4-(9-((4-chloropyridin-2-yl)methyl)-6-(1-methylcyclopropoxy)-9H-purin-8-yl)phenoxy)ethan-1-ol], the IC50 in the assay on DLD-1 cells (setting [3]) was more than 10000 nM; in the assay with DLD-1 BRCA2−/− cells (setting [4]), 100 nM.

For the molecule `CN1CCN(CCOc2ccc(-c3nc4c(OC5(C)CC5)ncnc4n3Cc3cccc(F)c3F)c(Cl)c2)CC1` [Example E3, 8-(2-chloro-4-(2-(4-methylpiperazin-1-yl)ethoxy)phenyl)-9-(2,3-difluorobenzyl)-6-(1-methylcyclopropoxy)-9H-purine], the IC50 in the assay with DLD-1 cells (setting [5]) was 3980 nM; in the assay with DLD-1 BRCA2−/− cells (setting [6]), 50.1 nM.

In the case of `CC(CCOc1ccc(-c2nc3c(OC4(C)CC4)ncnc3n2Cc2cccc(C(C)(F)F)c2)c(Cl)c1)C(=O)O` (racemic) [Example T544, 4-(3-chloro-4-(9-(3-(1,1-difluoroethyl)benzyl)-6-(1-methylcyclopropoxy)-9H-purin-8-yl)phenoxy)-2-methylbutanoic acid], the IC50 in the assay on DLD-1 cells (setting [7]) was more than 10000 nM; in the assay on DLD-1 BRCA2−/− cells (setting [8]), 501 nM.

Take `CC(CCOc1ccc(-c2nc3c(OC4(C)CC4)ncnc3n2Cc2cccc(C#N)c2)c(Cl)c1)C(=O)O` (racemic) [Example T399, 4-(3-chloro-4-(9-(3-cyanobenzyl)-6-(1-methylcyclopropoxy)-9H-purin-8-yl)phenoxy)-2-methylbutanoic acid]: the IC50 in the assay with DLD-1 cells (DLD-1, proliferation, luminescence, second Prolif column (c6), taken as DLD-1 BRCA2 wt control, read-out: POLQ PD Prolif Lumin (converted)) was more than 10000 nM; in the assay on DLD-1 BRCA2−/− cells (DLD-1, proliferation, luminescence, taken as DLD-1 BRCA2-/-, read-out: POLQ PD Prolif Lumin (converted)), 316 nM.

As to `Cc1cnc(Cn2c(-c3ccc(OCCN4CCNCC4)cc3Cl)nc3c(OC4(C)CC4)ncnc32)cc1C` [Example T596, 8-(2-chloro-4-(2-(piperazin-1-yl)ethoxy)phenyl)-9-((4,5-dimethylpyridin-2-yl)methyl)-6-(1-methylcyclopropoxy)-9H-purine], the IC50 in the assay on DLD-1 cells (setting [9]) is more than 10000 nM; in the assay on DLD-1 BRCA2−/− cells (setting [10]), 5010 nM.

Consider `Cc1ccnc(Cn2c(-c3ccc(C(=O)N4CCNCC4)cc3Cl)nc3c(OC4(C)CC4)ncnc32)c1` [Example T337, (3-chloro-4-(6-(1-methylcyclopropoxy)-9-((4-methylpyridin-2-yl)methyl)-9H-purin-8-yl)phenyl)(piperazin-1-yl)methanone], for which the IC50 in the assay with DLD-1 cells (setting [11]) was more than 10000 nM; in the assay on DLD-1 BRCA2−/− cells (setting [12]) it was 5010 nM.

Take `CN(C)CCCOc1ccc(-c2nc3c(OC4(C)CC4)nccc3n2Cc2cc(Cl)ccn2)c(Cl)c1` [Example T377, 3-(3-chloro-4-(1-((4-chloropyridin-2-yl)methyl)-4-(1-methylcyclopropoxy)-1H-imidazo[4,5-c]pyridin-2-yl)phenoxy)-N,N-dimethylpropan-1-amine]: the IC50 was more than 7940 nM in the assay on DLD-1 cells (setting [11]) and 158 nM in the assay with DLD-1 BRCA2−/− cells (setting [12]).

As for `Cc1ccnc(Cn2c(-c3ccc(CC(=O)NC(C)C)cc3Cl)nc3c(OC4(C)CC4)ncnc32)c1` [Example T357, 2-(3-chloro-4-(6-(1-methylcyclopropoxy)-9-((4-methylpyridin-2-yl)methyl)-9H-purin-8-yl)phenyl)-N-isopropylacetamide], the values for the IC50 with DLD-1 cells (setting [11]) and in the assay with DLD-1 BRCA2−/− cells (setting [12]) were more than 10000 nM and 398 nM, respectively.

`Cc1cc(N2CCC(N)CC2)ncc1-c1nc2c(OC3(C)CC3)ncnc2n1Cc1ccccc1` [Example F1, 1-(5-(9-benzyl-6-(1-methylcyclopropoxy)-9H-purin-8-yl)-4-methylpyridin-2-yl)piperidin-4-amine]: the IC50 in the assay with DLD-1 cells (setting [5]) was more than 10000 nM; with DLD-1 BRCA2−/− cells (setting [6]) it was 398 nM.

For `CNCc1ccc(-c2nc3c(OC4(C)CC4)ncnc3n2Cc2cc(C)ccn2)c(Cl)c1` [Example T68, 1-(3-chloro-4-(6-(1-methylcyclopropoxy)-9-((4-methylpyridin-2-yl)methyl)-9H-purin-8-yl)phenyl)-N-methylmethanamine], the IC50 in the assay on DLD-1 cells (setting [3]) is more than 10000 nM; in the assay with DLD-1 BRCA2−/− cells (setting [4]) it was 1000 nM.

On to `CCC1(Oc2ncnc3c2nc(-c2ccc(OCCN4CCNCC4)cc2Cl)n3Cc2ccccc2)CC1` [Example Q2, 9-benzyl-8-(2-chloro-4-(2-(piperazin-1-yl)ethoxy)phenyl)-6-(1-ethylcyclopropoxy)-9H-purine], for which the IC50 with DLD-1 cells (setting [5]) was 2000 nM; in the assay on DLD-1 BRCA2−/− cells (setting [6]) it was 398 nM.

For the molecule `Cc1ccnc(Cn2c(-c3ccc(CC(=O)N4CCC(O)CC4)cc3Cl)nc3c(OC4(C)CC4)ncnc32)c1` [Example T574, 2-(3-chloro-4-(6-(1-methylcyclopropoxy)-9-((4-methylpyridin-2-yl)methyl)-9H-purin-8-yl)phenyl)-1-(4-hydroxypiperidin-1-yl)ethan-1-one], the values for the IC50 in the assay on DLD-1 cells (setting [9]) and in the assay on DLD-1 BRCA2−/− cells (setting [10]) were more than 10000 nM and 1000 nM, respectively.

Take `Cc1cnc(Cn2c(-c3ccc(OCCCN4CC(O)C4)cc3Cl)nc3c(OC4(C)CC4)ncnc32)s1` [Example T244, 1-(3-(3-chloro-4-(6-(1-methylcyclopropoxy)-9-((5-methylthiazol-2-yl)methyl)-9H-purin-8-yl)phenoxy)propyl)azetidin-3-ol]: the IC50 in the assay with DLD-1 cells (setting [13]) was more than 7940 nM; in the assay with DLD-1 BRCA2−/− cells (setting [14]), 501 nM.

Turning to `CC1(Oc2ncnc3c2nc(-c2ccc(OCCCN4CCNCC4=O)cc2Cl)n3Cc2ccccc2)CC1` [Example S1, 1-(3-(4-(9-benzyl-6-(1-methylcyclopropoxy)-9H-purin-8-yl)-3-chlorophenoxy)propyl)piperazin-2-one], the IC50 is more than 10000 nM with DLD-1 cells (setting [5]) and 39.8 nM in the assay on DLD-1 BRCA2−/− cells (setting [6]).

For the molecule `Cc1ccnc(Cn2c(-c3ccc(OC4CNC4)cc3Cl)nc3c(OC4(C)CC4)ncnc32)c1` [Example T111, 8-(4-(azetidin-3-yloxy)-2-chlorophenyl)-6-(1-methylcyclopropoxy)-9-((4-methylpyridin-2-yl)methyl)-9H-purine], the IC50 in the assay on DLD-1 cells (setting [7]) is more than 10000 nM; in the assay on DLD-1 BRCA2−/− cells (setting [8]) it was 316 nM.

For the molecule `COc1ccc(C)cc1Cn1c(-c2ccc(OCCC(C)C(=O)O)cc2Cl)nc2c(OC3(C)CC3)ncnc21` (racemic) [Example U1, 4-(3-chloro-4-(9-(2-methoxy-5-methylbenzyl)-6-(1-methylcyclopropoxy)-9H-purin-8-yl)phenoxy)-2-methylbutanoic acid], the IC50 in the assay on DLD-1 cells (setting [1]) was more than 10000 nM; in the assay on DLD-1 BRCA2−/− cells (setting [2]), 50.1 nM.

In the case of `C[C@H]1CNCCN1CCOc1ccc(-c2nc3c(OC4(C)CC4)ncnc3n2Cc2cc(Cl)ccn2)c(Cl)c1` [Example T523, (S)-8-(2-chloro-4-(2-(2-methylpiperazin-1-yl)ethoxy)phenyl)-9-((4-chloropyridin-2-yl)methyl)-6-(1-methylcyclopropoxy)-9H-purine], the results for the IC50 in the assay on DLD-1 cells (setting [7]) and with DLD-1 BRCA2−/− cells (setting [8]) were more than 10000 nM and 200 nM, respectively.

As for `CC(CCOc1ccc(-c2nc3c(OC4(C)CC4)ncnc3n2Cc2cc(Cl)ccc2Cl)c(Cl)c1)C(=O)O` (racemic) [Example T276, 4-(3-chloro-4-(9-(2,5-dichlorobenzyl)-6-(1-methylcyclopropoxy)-9H-purin-8-yl)phenoxy)-2-methylbutanoic acid], the IC50 in the assay on DLD-1 cells (setting [13]) is more than 10000 nM; in the assay on DLD-1 BRCA2−/− cells (setting [14]) it was 63.1 nM.

As to `CN(C)CCCOc1ccc(-c2nc3c(OC4(C)CC4)ncnc3n2Cc2cc(C(F)F)ccn2)c(Cl)c1` [Example T352, 3-(3-chloro-4-(9-((4-(difluoromethyl)pyridin-2-yl)methyl)-6-(1-methylcyclopropoxy)-9H-purin-8-yl)phenoxy)-N,N-dimethylpropan-1-amine], the IC50 in the assay on DLD-1 cells (setting [11]) is more than 10000 nM; in the assay with DLD-1 BRCA2−/− cells (setting [12]), 158 nM.

Take `Cc1cnc(Cn2c(-c3cccc(OCCCN4CC(O)C4)c3Cl)nc3c(OC4(C)CC4)ncnc32)s1` [Example T246, 1-(3-(2-chloro-3-(6-(1-methylcyclopropoxy)-9-((5-methylthiazol-2-yl)methyl)-9H-purin-8-yl)phenoxy)propyl)azetidin-3-ol]: the IC50 was more than 10000 nM in the assay on DLD-1 cells (setting [13]) and 794 nM in the assay on DLD-1 BRCA2−/− cells (setting [14]).

Regarding `COc1ccc(C)cc1Cn1c(-c2cccc(OCCCOCC(=O)O)c2Cl)nc2c(OC3(C)CC3)ncnc21` [Example U93, 2-(3-(2-chloro-3-(9-(2-methoxy-5-methylbenzyl)-6-(1-methylcyclopropoxy)-9H-purin-8-yl)phenoxy)propoxy)acetic acid], the IC50 was more than 10000 nM with DLD-1 cells (setting [1]) and 12.6 nM with DLD-1 BRCA2−/− cells (setting [2]).
